Patent US20090048112A1, “Novel Herbicides” (SYNGENTA LIMITED, priority 2005, published 2009)

Key:
Format in all cases: in vivo
[1] = test system: Amaranthus retroflexus (redroot pigweed); assay: Example B2: herbicidal action post emergence, 500 g/ha; conditions: applied to the foliage, 13 days after application, 0 is no damage to plants, 100 is plants completely dead
Method: (§1) Monocotyledonous and dicotyledonous test plants were sown in seed trays in standard compost and were grown for eight days. The trays were watered twice daily or as required. The chemicals were applied by track sprayer to the foliage. The application was carried out with an aqueous suspension of the test substances, prepared as a formulation of 50% acetone in water with 0.5% Tween 20™ (CAS RN 9005-64-5), to achieve a field equivalent of 1000 l/ha. The application rate of the test substances was 500 g/ha. A visual assessment of the herbicidal effect was made at 13 days after application. The following percentage scale was used for assessment: 0, 5, 10, 20, 30, 40, 50, 60, 70, 80, 90, 95, 100 (where O is no damage to plants and 100 is plants are completely dead).

[2] = test system: Echinochloa crus-galli (barnyard grass); assay: as above; conditions: applied to the foliage, 13 days after application, 0 is no damage to plants, 100 is plants completely dead
Method: as §1

[3] = test system: Alopecurus myosuroides (slender foxtail); assay: as above; conditions: applied to the foliage, 13 days after application, 0 is no damage to plants, 100 is plants completely dead
Method: as §1

[4] = test system: Stellaria media (chickweed); assay: as above; conditions: applied to the foliage, 13 days after application, 0 is no damage to plants, 100 is plants completely dead
Method: as §1

[5] = test system: Monocotyledonous and dicotyledonous test plants; assay: Example B1: herbicidal action prior to emergence (pre-emergence), 500 g/ha; conditions: 13 days after application, 0 = no damage, 100 = plants completely dead; for ALOMY herbicidal effect (visual assessment, percentage scale): Alopecurus myosuroides (slender foxtail); for AMARE herbicidal effect (visual assessment, percentage scale): Amaranthus retroflexus (redroot pigweed); for ECHCG herbicidal effect (visual assessment, percentage scale): Echinochloa crus-galli (barnyard grass); for STEME herbicidal effect (visual assessment, percentage scale): Stellaria media (chickweed)
Method: as §1, with “standard compost.” for “standard compost and were grown for eight days.”, “sprayer at” for “sprayer to”, “the soil surface.” for “the foliage.”, “(where 0” for “(where O”

## Cn1nc(C(F)(F)F)c(C[S+]([O-])c2ncc(Br)s2)c1OCC(F)F (racemic) [1.025]
[1]
  AMARE, visual assessment of the herbicidal effect: 80%
[2]
  ECHCG, visual assessment of the herbicidal effect: 80%
[3]
  ALOMY, visual assessment of the herbicidal effect: 70%
[4]
  STEME, visual assessment of the herbicidal effect: 90%
[5]
  ALOMY herbicidal effect (visual assessment, percentage scale): 95%
  AMARE herbicidal effect (visual assessment, percentage scale): 100%
  ECHCG herbicidal effect (visual assessment, percentage scale): 95%
  STEME herbicidal effect (visual assessment, percentage scale): 90%

## COCCOc1c(C[S+]([O-])c2ncc(Cl)s2)c(C(F)(F)F)nn1C (racemic) [1.051]
[1]
  AMARE, visual assessment of the herbicidal effect: 70%
[2]
  ECHCG, visual assessment of the herbicidal effect: 80%
[3]
  ALOMY, visual assessment of the herbicidal effect: 70%
[4]
  STEME, visual assessment of the herbicidal effect: 70%
[5]
  ALOMY herbicidal effect (visual assessment, percentage scale): 80%
  AMARE herbicidal effect (visual assessment, percentage scale): 100%
  ECHCG herbicidal effect (visual assessment, percentage scale): 70%
  STEME herbicidal effect (visual assessment, percentage scale): 100%

## Cn1nc(C(F)(F)F)c(C[S+]([O-])c2ncc(Cl)s2)c1OC(F)F (racemic) [1.057]
[1]
  AMARE, visual assessment of the herbicidal effect: 100%
[2]
  ECHCG, visual assessment of the herbicidal effect: 80%
[3]
  ALOMY, visual assessment of the herbicidal effect: 90%
[4]
  STEME, visual assessment of the herbicidal effect: 90%
[5]
  ALOMY herbicidal effect (visual assessment, percentage scale): 90%
  AMARE herbicidal effect (visual assessment, percentage scale): 95%
  ECHCG herbicidal effect (visual assessment, percentage scale): 95%
  STEME herbicidal effect (visual assessment, percentage scale): 80%

## CCOc1c(CS(=O)(=O)c2ncc(Br)s2)c(C(F)(F)F)nn1C [1.023]
[1]
  AMARE, visual assessment of the herbicidal effect: 80%
[2]
  ECHCG, visual assessment of the herbicidal effect: 80%
[3]
  ALOMY, visual assessment of the herbicidal effect: 70%
[4]
  STEME, visual assessment of the herbicidal effect: 20%
[5]
  ALOMY herbicidal effect (visual assessment, percentage scale): 50%
  AMARE herbicidal effect (visual assessment, percentage scale): 100%
  ECHCG herbicidal effect (visual assessment, percentage scale): 90%
  STEME herbicidal effect (visual assessment, percentage scale): 30%

## Cn1nc(C(F)(F)F)c(CS(=O)(=O)c2ncc(Br)s2)c1OCC(F)F [1.026]
[1]
  AMARE, visual assessment of the herbicidal effect: 60%
[2]
  ECHCG, visual assessment of the herbicidal effect: 70%
[3]
  ALOMY, visual assessment of the herbicidal effect: 70%
[4]
  STEME, visual assessment of the herbicidal effect: 0%
[5]
  ALOMY herbicidal effect (visual assessment, percentage scale): 60%
  AMARE herbicidal effect (visual assessment, percentage scale): 90%
  ECHCG herbicidal effect (visual assessment, percentage scale): 95%
  STEME herbicidal effect (visual assessment, percentage scale): 0%

## COCCOc1c(CS(=O)(=O)c2ncc(Cl)s2)c(C(F)(F)F)nn1C [1.052]
[1]
  AMARE, visual assessment of the herbicidal effect: 50%
[2]
  ECHCG, visual assessment of the herbicidal effect: 70%
[3]
  ALOMY, visual assessment of the herbicidal effect: 80%
[4]
  STEME, visual assessment of the herbicidal effect: 10%
[5]
  ALOMY herbicidal effect (visual assessment, percentage scale): 80%
  AMARE herbicidal effect (visual assessment, percentage scale): 100%
  ECHCG herbicidal effect (visual assessment, percentage scale): 95%
  STEME herbicidal effect (visual assessment, percentage scale): 90%

## Cn1nc(C(F)(F)F)c(CS(=O)(=O)c2ncc(Cl)s2)c1OC(F)F [1.058]
[1]
  AMARE, visual assessment of the herbicidal effect: 80%
[2]
  ECHCG, visual assessment of the herbicidal effect: 70%
[3]
  ALOMY, visual assessment of the herbicidal effect: 60%
[4]
  STEME, visual assessment of the herbicidal effect: 0%
[5]
  ALOMY herbicidal effect (visual assessment, percentage scale): 30%
  AMARE herbicidal effect (visual assessment, percentage scale): 100%
  ECHCG herbicidal effect (visual assessment, percentage scale): 95%
  STEME herbicidal effect (visual assessment, percentage scale): 10%

## Cn1nc(C(F)(F)F)c(CSc2ncc(Br)s2)c1OCC(F)(F)F [Compound No. 1.001, 5-bromo-2-[1-methyl-5-(2,2,2-trifluoroethoxy)-3-trifluoromethyl-1H-pyrazol-4-ylmethylsulfanyl]-thiazole]
[1]
  AMARE, visual assessment of the herbicidal effect: 80%
[2]
  ECHCG, visual assessment of the herbicidal effect: 60%
[3]
  ALOMY, visual assessment of the herbicidal effect: 80%
[4]
  STEME, visual assessment of the herbicidal effect: 80%
[5]
  ALOMY herbicidal effect (visual assessment, percentage scale): 90%
  AMARE herbicidal effect (visual assessment, percentage scale): 90%
  ECHCG herbicidal effect (visual assessment, percentage scale): 95%
  STEME herbicidal effect (visual assessment, percentage scale): 60%

## Cn1nc(C(F)(F)F)c(C[S+]([O-])c2ncc(Br)s2)c1OCC(F)(F)F (centres unmarked) [Compound No. 1.002, 5-bromo-2-[1-methyl-5-(2,2,2-trifluoroethoxy)-3-trifluoromethyl-1H-pyrazol-4-ylmethanesulfinyl]-thiazole]
[1]
  AMARE, visual assessment of the herbicidal effect: 95%
[2]
  ECHCG, visual assessment of the herbicidal effect: 95%
[3]
  ALOMY, visual assessment of the herbicidal effect: 95%
[4]
  STEME, visual assessment of the herbicidal effect: 90%
[5]
  ALOMY herbicidal effect (visual assessment, percentage scale): 95%
  AMARE herbicidal effect (visual assessment, percentage scale): 100%
  ECHCG herbicidal effect (visual assessment, percentage scale): 95%
  STEME herbicidal effect (visual assessment, percentage scale): 100%

## Cn1nc(C(F)(F)F)c(CSc2ncc(Br)s2)c1Cl [Compound No. 1.004, 5-bromo-2-(5-chloro-1-methyl-3-trifluoromethyl-1H-pyrazol-4-ylmethylsulfanyl)-thiazole]
[1]
  AMARE, visual assessment of the herbicidal effect: 70%
[2]
  ECHCG, visual assessment of the herbicidal effect: 90%
[3]
  ALOMY, visual assessment of the herbicidal effect: 80%
[4]
  STEME, visual assessment of the herbicidal effect: 60%
[5]
  ALOMY herbicidal effect (visual assessment, percentage scale): 95%
  AMARE herbicidal effect (visual assessment, percentage scale): 95%
  ECHCG herbicidal effect (visual assessment, percentage scale): 95%
  STEME herbicidal effect (visual assessment, percentage scale): 60%

## Cn1nc(C(F)(F)F)c(CS(=O)(=O)c2ncc(Br)s2)c1Cl [Compound No. 1.006, 5-bromo-2-(5-chloro-1-methyl-3-trifluoromethyl-1H-pyrazol-4-ylmethanesulfonyl)-thiazole]
[1]
  AMARE, visual assessment of the herbicidal effect: 30%
[2]
  ECHCG, visual assessment of the herbicidal effect: 80%
[3]
  ALOMY, visual assessment of the herbicidal effect: 70%
[4]
  STEME, visual assessment of the herbicidal effect: 0%
[5]
  ALOMY herbicidal effect (visual assessment, percentage scale): 90%
  AMARE herbicidal effect (visual assessment, percentage scale): 95%
  ECHCG herbicidal effect (visual assessment, percentage scale): 95%
  STEME herbicidal effect (visual assessment, percentage scale): 30%

## Cn1nc(C(F)(F)F)c(CSc2ncc(Cl)s2)c1OCC(F)(F)F [Compound No. 1.013]
[1]
  AMARE, visual assessment of the herbicidal effect: 60%
[2]
  ECHCG, visual assessment of the herbicidal effect: 50%
[3]
  ALOMY, visual assessment of the herbicidal effect: 60%
[4]
  STEME, visual assessment of the herbicidal effect: 80%
[5]
  ALOMY herbicidal effect (visual assessment, percentage scale): 95%
  AMARE herbicidal effect (visual assessment, percentage scale): 95%
  ECHCG herbicidal effect (visual assessment, percentage scale): 80%
  STEME herbicidal effect (visual assessment, percentage scale): 95%

## Cn1nc(C(F)(F)F)c(C(F)(F)S(=O)(=O)c2ncc(Cl)s2)c1OCC(F)(F)F [Compound No. 1.037]
[1]
  AMARE, visual assessment of the herbicidal effect: 95%
[2]
  ECHCG, visual assessment of the herbicidal effect: 20%
[3]
  ALOMY, visual assessment of the herbicidal effect: 90%
[4]
  STEME, visual assessment of the herbicidal effect: 70%
[5]
  ALOMY herbicidal effect (visual assessment, percentage scale): 60%
  AMARE herbicidal effect (visual assessment, percentage scale): 100%
  ECHCG herbicidal effect (visual assessment, percentage scale): 95%
  STEME herbicidal effect (visual assessment, percentage scale): 95%
